Measured values as given in patent US20100255580A1, “Differentiation of Human Embryonic Stem Cells” (LIFESCCAN, INC., priority 2007, published 2010).

Test system: human embryonic stem cells (H9, H7) on MATRIGEL
Test: FACS of CXCR4, DE protocol on […] (feeder-free)
Assay type: cell-based
Conditions: for cells expressing CXCR4 (FACS): H9 passage 54, end of the 5th day, 100 ng/ml Activin A +/− 10 ng/ml Wnt3a for 2 days
Method: Adhered cells were removed from culture plates by five-minute incubation with TrypLE™ Express solution (Invitrogen, CA). Released cells were resuspended in human embryonic stem cell culture medium and recovered by centrifugation, followed by washing and resuspending the cells in a staining buffer consisting of 2% BSA, 0.05% sodium azide in PBS (Sigma, MO). As appropriate, the cells were Fc-receptor blocked for 15 minutes using a 0.1% γ-globulin (Sigma) solution. […] Controls included appropriate isotype matched antibodies, unstained cells, and cells stained only with secondary conjugated antibody. All incubations with antibodies were performed for 30 mins at 4° C. after which the cells were washed with the staining buffer. Samples that were stained with unconjugated primary antibodies were incubated for an additional 30 mins at 4° C. with secondary conjugated PE or -APC labeled antibodies. See Table I for a list of secondary antibodies used. Washed cells were pelleted and resuspended in the staining buffer, and the cell surface molecules were identified using a FACS Array (BD Biosciences) instrument, collecting at least 10,000 events.
Differentiation of embryonic stem cells to definitive endoderm was carried out as previously described in Nature Biotechnology 23, 1534-1541 (December 2005). […] H9 cells were cultured on plates coated with growth factor reduced […] at a 1:30 to 1:10 dilution or on regular […] at a 1:30 to 1:10 dilution The plates were coated with […] for 1 hr at room temperature.
At day 5, the cultures were analyzed by FACS for CXCR4, E-cadherin, CD9, and N-cadherin expression and by real time PCR for SOX-17, SOX-7, Alpha-fetal protein (AFP), CXCR4, Brychyury (Bry), gooscecoid (GSC), HNF-3 beta, and GATA4. AFP and SOX-7 are regarded as visceral endoderm markers, while GATA4, HNF-3 beta and SOX-17 represent definite endoderm markers, and GSC, Bry, and CXCR4 represent markers of primitive streak. FIG. 17 depicts the expression of CXCR4 by FACS.
Differentiation of embryonic stem cells to definitive endoderm was carried out as previously described in Nature Biotechnology 23, 1534-1541 (December 2005). […] In all subsequent examples unless otherwise noted, this treatment regimen will be referred to as the definite endoderm (DE) protocol. In parallel, H9, H7, or H1 cells cultured on MEF feeders were also exposed to the same DE protocol outlined above.
In some of the cultures 20 ng/ml Wnt-3a (Catalog #1324-WN-002, R&D Systems, MN), 20 ng/ml Wnt-5a (Catalog #654-WN-010, R&D Systems, MN), 25 ng/ml Wnt-7a (Catalog #3008-WN-025, R&D Systems, MN), or 25 ng/ml Wnt-5b (Catalog #3006-WN-025, R&D Systems, MN) was added throughout the five day treatment. FIG. 24 depicts phase contrast images of H9P46 definitive endoderm culture in the presence of high concentration of (a) AA or (b) AA+20 ng/ml Wnt-3a. FIG. 25 depicts the expression of CXCR4 by FACS at day 5 for H7P44, and H9P46 lines cultured on […] (1:30 dilution) and exposed to the DE protocol+Wnt-3a (FIG. 25, panels b and d) and −Wnt-3a (FIG. 25, panels a and c).
Control cultures were not treated with Wnt-3a. FIG. 27, panel a depicts the expression of CXCR4 by FACS at day 5 in the absence of Wnt-3a, b) 10 ng/ml Wnt-3a, c) 20 ng/ml Wnt-3a and d) 50 ng/ml Wnt-3a. In the absence of Wnt-3a the expression of CXCR4 was very low. […] Real-time PCR results (FIG. 28, panel a) also confirm this finding.
In order to confirm that the effect of Wnt-3a was through the Wnt pathway, a GSK-3 inhibitor was used to activate the downstream targets of Wnt, such as beta catenin. […] FIG. 29, panel a depicts the expression of CXCR4 by FACS at day 5 in the absence of Wnt-3a or GSK-3B inhibitor, b) +20 ng/ml Wnt-3a, c) +1000 nM GSK-3B inhibitor IX, d) +500 nM GSK-3B inhibitor IX, e) +100 nM GSK-3B inhibitor IX, f) +10 nM GSK-3B inhibitor IX, g) +100 nM GSK-3B inhibitor IX for days 1-2, and h) +10 nM GSK-3B inhibitor IX for days 1-2. […]

[1] = H9P46-P48, 20 ng/ml Wnt-3a or 100-1000 nM GSK-3B inhibitor, day 5

Row | Molecule | number of CXCR4 positive cells [1] | expression of CXCR4 (FACS) (H9P46-P48, 10 nm GSK-3B inhibitor, day 5) | cells expressing CXCR4 (FACS) [%] | expression of CXCR4 (CD184) by FACS (H7P44 and H9P46, day 5, DE protocol + 20 ng/ml Wnt-3a vs low serum plus AA) | number of CXCR4 positive cells (H9P46, 10-50 ng/ml Wnt-3a with 100 ng/ml AA, day 5)
1 | O=C1Nc2cc(Br)ccc2/C1=C1/Nc2ccccc2/C1=N\O [GSK-3B inhibitor IX, reference compound] | significantly increased | very low | – | – | –
2 | Activin A: a member of the TGFβ superfamily; R&D Systems; Group 2 = Activin A (100 ng/ml) | – | – | 1 | – | –
3 | Wnt-3a | significantly increased | – | 73 | robust expression | significantly increased
